Data: US5481013A, “Carboxylic acid derivatives” (Ciba-Geigy Corporation, priority 1992, dated 1996)

Legend:
Format in all cases: in vivo
Dermanyssus gallinae = assay: Activity against Dermanyssus gallinae; settings: 72 h, 10 ppm solution, mites in different development stages, after 3 days
Description: 2 to 3 ml of a solution comprising 10 ppm of active ingredient and approximately 200 mites in different development stages are placed into a glass container which is open at the top. The container is then sealed with a cottonwool ball, shaken for 10 minutes until the mites are wetted completely, and then briefly turned over so that the remaining test solution can be absorbed by the cottonwool. After 3 days, the mortality of the mites is determined by counting the dead individuals; it is given as a percentage.

Myzus persicae = assay: Systemic activity against Myzus persicae; settings: roots of pea seedlings in 400 ppm spray mixture, 20° C., evaluated after 3 and 6 days, read-out: percentage reduction in population (% activity)
Description: Pea seedlings are infected with Myzus persicae, the roots of the plants are then placed into a spray mixture comprising 400 ppm of the active ingredient, and the plants are incubated at 20° C. The test is evaluated after 3 and 6 days. The percentage reduction in population (% activity) is determined by comparing the number of dead aphids on the treated plants with those on the untreated plants.

Ctenocephalides felis = assay: Activity against Ctenocephalides felis; settings: 504 h, 100 ppm in flea larvae nutrient medium, flea eggs, checked after 21 days
Description: 20 to 25 flea eggs are placed into a horizontally positioned 50 ml tissue culture flask into which 15 g of flea larvae nutrient medium comprising 100 ppm of the active ingredient to be tested have previously been introduced. The test flasks are incubated in an incubator at 26° to 27° C. and an atmospheric humidity of 60-70%. After 21 days, the flasks are checked for the presence of adult fleas, unhatched pupae and larvae.

Tetranychus urticae = assay: Activity against Tetranychus urticae; settings: 144 h, 400 ppm spray on young bean plants, mixed population, 6 days at 25° C, read-out: percentage reduction in population (% activity)
Description: Young bean plants are populated with a mixed population of Tetranychus urticae and, after 1 day, sprayed with a spray mixture prepared with an aqueous emulsion and comprising 400 ppm of the active ingredient. The plants are subsequently incubated for 6 days at 25° C and then evaluated. The percentage reduction in population (% activity) is determined by comparing the number of dead eggs, larvae and adults on the treated plants with those on the untreated ones.

[1] = tested on: Crocidolomia binotalis caterpillars; assay: Activity against Crocidolomia binotalis caterpillars; settings: Brassica oleracea, 72 h; 400 ppm spray on young cabbage plants, third larval stage, evaluated after 3 days; read-out: percentage reduction in population or in feeding damage (% activity)
Description: Young cabbage plants are sprayed with a spray mixture prepared with an aqueous emulsion and comprising 400 ppm of the active ingredient. After the spray coating has dried on, the cabbage plants are infested with 10 Crocidolomia binotalis in the third larval stage and placed into a plastic container. The test is evaluated after 3 days. The percentage reduction in population, or the percentage reduction in feeding damage (% activity), is determined by comparing the number of dead caterpillars and the feeding damage on the treated plants with those on the untreated plants.

O=C(CC=C(F)F)OCCOc1ccc(Oc2ccccc2)cc1 [Compound 1.01, 2-(4-phenoxyphenoxy)ethyl-4,4-difluorobut-3-enoate]
> 80%: mortality at 10 ppm (Dermanyssus gallinae) | activity at 400 ppm (Myzus persicae) | pest or weed control at 100 ppm (Ctenocephalides felis) | activity at 400 ppm (Tetranychus urticae) | activity at 400 ppm [1]

O=C(CCCCCC=C(F)F)OCCOc1ccc(Oc2ccccc2)cc1 [Compound 3.01]
> 80%: pest or weed control at 100 ppm (Ctenocephalides felis) | activity at 400 ppm (Tetranychus urticae) | activity at 400 ppm [1]
